Test system: luciferase-based reporter constructs in S2R+ cells
Test: Luciferase-based mutation reporter assay (sgRNA mutation efficiency)
Type: cell-based, Drosophila
Details: sgRNAs with no mismatches targeting luciferase-based reporter in S2R+ cells; mutation rate = 1/Firefly luciferase normalized to Renilla
Experimental: The luciferase reporter vector was constructed by PCR amplifying the metallothionein promoter from pMK33 and luciferase gene from pGL3 (Table 1) and combining these with annealed oligos containing a gRNA target site (Table 1 and Table 2) and a custom made cloning vector using Golden Gate assembly.
Luciferase assays were performed by transfecting S2R+ cells with the relevant pl018 plasmid, luciferase reporter and pRL-TK (Promega) (to allow normalization of transfection efficiencies between samples) in 96 well plates using Effectene Transfection Reagent (Qiagen) according to the manufacturer's recommendations. Twenty-four hours after transfection, CuSO4 was added to the cell media at a final concentration of 140 μM and cells were incubated for a further 16 hours.
Firefly and Renilla luciferase readings were taken using the Dual-Glo Luciferase Assay System (Promega) according to manufacturer's instructions and a SpectraMax Paradigm Multi-Mode Microplate Detection Platform (Molecular Devices).
Because the rate of mutations varies widely between different sgRNAs (25-27), whether efficiency could be predicted based on the sgRNA sequence was tested. 75 additional sgRNAs were generated, each targeting luciferase-based reporter constructs with no mismatches and tested mutation efficiency for each. Using this panel of sgRNAs and associated efficiencies, the presence or absence of a correlation between GC content and mutation rate was examined. […] Next, whether a more general sequence-based approach was tested for its ability to improve efficiency prediction. The nucleotide content of all 75 sgRNAs was examined, considering each position separately and generated a probability matrix linking nucleotide content with mutation rate (FIG. 1, panel B). This was then used to generate predicted efficiency scores based on sgRNA sequence. […] Note that sgRNAs targeting close to the 3′ end of genes or with apparent viability effects were not included in this analysis. Finally, predicted scores were generated for all sgRNA target sites in the Drosophila genome and annotated.

Substance	Mean efficiency
AAACAGAAGGTCTTCCCCAA: sgRNA targeting a luciferase-based reporter construct, no mismatches (chemistry not given here)	0.3046
AAAGAGCTGCGGGCCGGGCG: sgRNA targeting a luciferase-based reporter construct, no mismatches (chemistry not given here)	0.06954
AACGACATCACGGTCCATGC: sgRNA targeting a luciferase-based reporter construct, no mismatches (chemistry not given here)	0.2424
AACTCAAAGACCCGCTTTCG: sgRNA targeting a luciferase-based reporter construct, no mismatches (chemistry not given here)	0.1408
AAGATAAGTTCTCTCCTATT: sgRNA targeting a luciferase-based reporter construct, no mismatches (chemistry not given here)	0.04594
AAGTAGGCTCTCCTGAATGG: sgRNA targeting a luciferase-based reporter construct, no mismatches (chemistry not given here)	0.1224
ACCAGCATATGCCGGCCTGC: sgRNA targeting a luciferase-based reporter construct, no mismatches (chemistry not given here)	0.767
ACCCTGTCCACTCATATATG: sgRNA targeting a luciferase-based reporter construct, no mismatches (chemistry not given here)	0.4172
ACCGAAAGTCGCGCCGGACG: sgRNA targeting a luciferase-based reporter construct, no mismatches (chemistry not given here)	0.2496
ACCGCCAAACGGACCGCTTA: sgRNA targeting a luciferase-based reporter construct, no mismatches (chemistry not given here)	0.3105
ACGCGCACGGGTCTCACGCC: sgRNA targeting a luciferase-based reporter construct, no mismatches (chemistry not given here)	0.3288
AGACTGGTTTCCACCCGCTC: sgRNA targeting a luciferase-based reporter construct, no mismatches (chemistry not given here)	1.298
AGGGAGTCCGCATAGGCGGC: sgRNA targeting a luciferase-based reporter construct, no mismatches (chemistry not given here)	0.1819
AGTCCTCACCGTGGGGCACC: sgRNA targeting a luciferase-based reporter construct, no mismatches (chemistry not given here)	0.09069
ATAGTTCCCTCCATGCCCTT: sgRNA targeting a luciferase-based reporter construct, no mismatches (chemistry not given here)	0.07786
ATATCGGAGTCGGCCCAACC: sgRNA targeting a luciferase-based reporter construct, no mismatches (chemistry not given here)	0.4113
ATCTGACCTCCCGGCTAATT: sgRNA targeting a luciferase-based reporter construct, no mismatches (chemistry not given here)	0.05737
ATCTGGTCAGGACGCAAAGC: sgRNA targeting a luciferase-based reporter construct, no mismatches (chemistry not given here)	0.1406
ATCTTCCCGTCGACATAGCC: sgRNA targeting a luciferase-based reporter construct, no mismatches (chemistry not given here)	0.1609
CAACCAACAGGTCCGGCCCC: sgRNA targeting a luciferase-based reporter construct, no mismatches (chemistry not given here)	0.3833
CAAGCAAGTCCGGTCGGTTG: sgRNA targeting a luciferase-based reporter construct, no mismatches (chemistry not given here)	0.3531
CAGCCTCTCCCTGCGGATGC: sgRNA targeting a luciferase-based reporter construct, no mismatches (chemistry not given here)	0.2509

Substance	Mean efficiency
CAGGCATTGTGACGACGCGC: sgRNA targeting a luciferase-based reporter construct, no mismatches (chemistry not given here)	0.1744
CCACCGCGATATATGGGCGA: sgRNA targeting a luciferase-based reporter construct, no mismatches (chemistry not given here)	0.5711
CCAGTAACGTCAAAGCTAGG: sgRNA targeting a luciferase-based reporter construct, no mismatches (chemistry not given here)	0.1068
CCGCCGTGTGCTGCGAATAC: sgRNA targeting a luciferase-based reporter construct, no mismatches (chemistry not given here)	0.1661
CCGCGCCGAGGACTACCGCC: sgRNA targeting a luciferase-based reporter construct, no mismatches (chemistry not given here)	0.4568
CCGTCGAAGAACCGCGCAAT: sgRNA targeting a luciferase-based reporter construct, no mismatches (chemistry not given here)	1.029
CCTGGATGATACGCTGGCGC: sgRNA targeting a luciferase-based reporter construct, no mismatches (chemistry not given here)	0.1807
CCTTCGCGAGCACCCGGAAA: sgRNA targeting a luciferase-based reporter construct, no mismatches (chemistry not given here)	0.3812
CGAATTACTACGTAGAGCGG: sgRNA targeting a luciferase-based reporter construct, no mismatches (chemistry not given here)	0.1117
CGACGTTCCTGGCTCAATTG: sgRNA targeting a luciferase-based reporter construct, no mismatches (chemistry not given here)	0.9067
CGCCGGCACCGCGTCCCTAT: sgRNA targeting a luciferase-based reporter construct, no mismatches (chemistry not given here)	0.2542
CGTCGTTCTCGCCACCGCGC: sgRNA targeting a luciferase-based reporter construct, no mismatches (chemistry not given here)	0.1461
CTCACAGACGGCGCCCGGCG: sgRNA targeting a luciferase-based reporter construct, no mismatches (chemistry not given here)	0.4741
CTGCCGTTCTTCAGAAATAT: sgRNA targeting a luciferase-based reporter construct, no mismatches (chemistry not given here)	0.3101
CTGGGCCGGCGTGTCCGTTC: sgRNA targeting a luciferase-based reporter construct, no mismatches (chemistry not given here)	0.4328
CTTCCGACCCTTCGTTAGCC: sgRNA targeting a luciferase-based reporter construct, no mismatches (chemistry not given here)	0.1815
GAACTCCGACTAGATTATAT: sgRNA targeting a luciferase-based reporter construct, no mismatches (chemistry not given here)	0.4012
GACAAAGGATACTCAAATCC: sgRNA targeting a luciferase-based reporter construct, no mismatches (chemistry not given here)	0.05169
GACCGGATTCGCTACAACCC: sgRNA targeting a luciferase-based reporter construct, no mismatches (chemistry not given here)	0.6963
GCACCCTGCACGAATTATTT: sgRNA targeting a luciferase-based reporter construct, no mismatches (chemistry not given here)	0.2041
GCATGCCCACCTTATCGGCG: sgRNA targeting a luciferase-based reporter construct, no mismatches (chemistry not given here)	0.1169

— patent US20180179524A1, “COMPOSITIONS AND METHODS FOR INHIBITING CELL PROLIFERATION” (President and Fellows of Harvard College, priority 2015, published 2018)
